Experiment [1] addresses Mdm2 (human (endogenous in OCI/AML-2)) (UniProt Q00987). The experiment is described as follows: cellular thermal shift assay (CETSA); lysate CETSA: peptides at 10 uM added to 5 mg/ml AML2 cell lysate (kinase buffer: 25 mM Tris pH 7.4, 10 mM MgCl2, 2 mM DTT), 15 min at room temperature, heated 2 min, soluble protein by Western blot; dTm50 against the control.
Experiment [2] has as its target Mdm4 (human (endogenous in OCI/AML-2)) (UniProt O15151). The description is as above.
Experiment [3] has as its target T1, Mdm2 (Homo sapiens, UniProt Q00987). Kind of experiment: Lysate CETSA, thermal stabilisation of Mdm2 in AML2 cell lysates. In kind it is binding. Also on record: endogenous in cells; host or cells: OCI/AML-2 (AML2) cells, pre-treated with MG132. As to conditions: Fig. 1a, 10 μM in 5 mg/ml AML2 cell lysates, three independent replicates.
Experimental: (§1) Cells pre-treated with 10 μM MG132 for one hour were lysed in kinase buffer (25 mM Tris pH 7.4, 10 mM MgCl2, 2 mM DTT, 1x protease (Roche) and phosphatase inhibitor cocktails (Thermo Scientific)) by dounce homogenisation with a 2 ml Wheaton mortar and pestle. […] Following a 15 min incubation at room temperature with the drugs, the cell lysates were individually heated to the indicated temperatures for 2 min, cool at room temperature for 2 min, and placed on ice. Insoluble proteins were separated by centrifugation, and the soluble proteins were used for SDS PAGE and Western blotting for the indicated proteins. Three independent replicates were performed.
(§2) The relative signal intensities were plotted against temperature using Graphpad (Prism) and a variable slope sigmoidal curve was fitted by least squares for each data set using the following equation (1): [drawing 1]
(§3) Initial values for top and bottom plateaus were set at 1.0 and 0 respectively for curve fitting, while initial values for Tm50 and Hill Slope were automatically chosen. As the asymmetry of errors is small, errors were assumed to be symmetrical for statistical analyses.
Experiment [4] concerns the target T2, Mdm4 (Homo sapiens, UniProt O15151).
T2 sequence (O15151 1-490): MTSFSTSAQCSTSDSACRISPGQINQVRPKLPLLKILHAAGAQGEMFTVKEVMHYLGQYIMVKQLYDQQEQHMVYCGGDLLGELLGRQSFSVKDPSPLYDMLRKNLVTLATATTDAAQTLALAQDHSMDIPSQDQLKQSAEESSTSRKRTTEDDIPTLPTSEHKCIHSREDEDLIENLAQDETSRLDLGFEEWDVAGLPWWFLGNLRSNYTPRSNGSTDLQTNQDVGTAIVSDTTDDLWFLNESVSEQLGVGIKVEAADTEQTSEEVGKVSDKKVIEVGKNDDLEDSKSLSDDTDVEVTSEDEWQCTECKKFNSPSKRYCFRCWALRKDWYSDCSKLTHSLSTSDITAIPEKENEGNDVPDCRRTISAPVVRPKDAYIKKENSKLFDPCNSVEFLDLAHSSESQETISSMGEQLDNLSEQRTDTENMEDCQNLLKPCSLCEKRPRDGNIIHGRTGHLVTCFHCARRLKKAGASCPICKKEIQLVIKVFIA
The experiment is described as follows: Lysate CETSA, thermal stabilisation of Mdm4 in AML2 cell lysates. Also on record: endogenous in cells; host or cells: OCI/AML-2 (AML2) cells, pre-treated with MG132. In kind it is binding.
Experimental: as §1, §2, §3

In experiment [5] the target is T2, Mdm4. Also on record: method as in 3 sources, ref 10 = [10]; PMID 23214419; doi:10.1021/cb3005148; Brown C. J. et al. Stapled Peptides with Improved Potency and Specificity That Activate p53 . ACS Chem. Biol . 8 , 506 – 512 ( 2013 ). 23214419 10.1021/cb3005148 ||| ref 11 = [11]; PMID 23946421; doi:10.1073/pnas; Chang Y. S. et al. Stapled α−helical peptide drug development: A potent dual inhibitor of MDM2 and MDMX for p53-dependent cancer therapy . Proc. Natl. Acad. Sci . 201303002 (2013). 10.1073/pnas .13030 ||| ref 6 = [6]; PMID 14704432; doi:10.1126/science.1092472; Vassilev L. T. et al. In vivo activation of the p53 pathway by small-molecule antagonists of MDM2 . Science 303 , 844 – 848 ( 2004 ). 14704432 10.1126/science.1092472. As to conditions: competition assay, cited from earlier work.

In experiment [6] the test system is p53 responsive β-galactosidase reporter in T22 cells. The experiment is described as follows: T22 p53 β-galactosidase based reporter assay. As to conditions: 18 h treatment, text points to Fig. 2a in Brown et al., 2013. The format is cell-based. Background: Reporter assays use an easily measured gene product as a stand-in for the process of interest.
Experimental: T22 cells, which were stably transfected with a p53 responsive β-galactosidase reporter, were seeded into 96-well plate at a cell density of 8000 cells per well[22]. Cells were maintained in Dulbecco’s Minimal Eagle Medium (DMEM) with 10% FBS and penicillin/streptomycin and incubated for 24 hours before treatment with the stapled peptides for 18 hours. β-galactosidase activity was assayed using the FluoReporter LacZ/Galactosidase Quantitation kit (Invitrogen) as per manufacturer’s instructions. Measurements were made using an Envision plate reader (Perkin Elmer). Experiments were carried out independently thrice.
In experiment [7] the target is T1, Mdm2. Kind of experiment: Whole cell CETSA, Mdm2.
Experimental: (§4) Cells were pre-treated with 10 μM MG132 for one hour before a four hour treatment with the indicated drugs. They were then aliquoted for heating to different temperatures for 2 min, cooled at room temperature for 2 min and placed on ice. Kinase buffer was added to the cells, followed by lysis with three freeze/thaw cycles in liquid nitrogen. Insoluble proteins were separated by centrifugation, and the soluble proteins were used for SDS PAGE and Western blotting. Three independent experiments were performed.
as §2, §3
The target of experiment [8] is T1, Mdm2. Also on record: method as in 3 sources, ref 10 = [10]; PMID 23214419; doi:10.1021/cb3005148; Brown C. J. et al. Stapled Peptides with Improved Potency and Specificity That Activate p53 . ACS Chem. Biol . 8 , 506 – 512 ( 2013 ). 23214419 10.1021/cb3005148 ||| ref 11 = [11]; PMID 23946421; doi:10.1073/pnas; Chang Y. S. et al. Stapled α−helical peptide drug development: A potent dual inhibitor of MDM2 and MDMX for p53-dependent cancer therapy . Proc. Natl. Acad. Sci . 201303002 (2013). 10.1073/pnas .13030 ||| ref 6 = [6]; PMID 14704432; doi:10.1126/science.1092472; Vassilev L. T. et al. In vivo activation of the p53 pathway by small-molecule antagonists of MDM2 . Science 303 , 844 – 848 ( 2004 ). 14704432 10.1126/science.1092472. As to conditions: competition assay, cited from earlier work.

Experiment [9] addresses T2, Mdm4. The experiment is described as follows: Whole cell CETSA, Mdm4. As to conditions: whole cells 25 μM.
Experimental: as §4, §2, §3
Experiment [10] addresses Mdm2 (human (endogenous in OCI/AML-2)) (UniProt Q00987). Kind of experiment: cellular thermal shift assay (CETSA); whole cell CETSA: OCI/AML-2 cells pre-treated with 10 uM MG132 for 1 h, then 25 uM Staplin-2 for 4 h, intact cells heated 2 min, lysed by freeze/thaw, soluble protein by Western blot; compared with the lysate CETSA. On the technique in general: In western blotting, separated proteins are transferred to a membrane and probed.

Experiment [11] has as its target Mdm4 (human (endogenous in OCI/AML-2)) (UniProt O15151). The description is as above.
The mark [12] stands for this setting: no reference number printed in the cell, footnote: IC50s are obtained from the references indicated.

Like-named read-outs stand apart in the source and are kept apart here. Bridge positions count the residues as written; N and C are the ends. Square brackets hold non-standard residues; d marks the D form. Peptide text beside a SMILES is read from it. R8 = C=CCCCCCC[C@@](C)(N)C(=O)O; S5 = C=CCCC[C@](C)(N)C(=O)O

Mdm2 (human (endogenous in OCI/AML-2)), sequence (Q00987 whole entry): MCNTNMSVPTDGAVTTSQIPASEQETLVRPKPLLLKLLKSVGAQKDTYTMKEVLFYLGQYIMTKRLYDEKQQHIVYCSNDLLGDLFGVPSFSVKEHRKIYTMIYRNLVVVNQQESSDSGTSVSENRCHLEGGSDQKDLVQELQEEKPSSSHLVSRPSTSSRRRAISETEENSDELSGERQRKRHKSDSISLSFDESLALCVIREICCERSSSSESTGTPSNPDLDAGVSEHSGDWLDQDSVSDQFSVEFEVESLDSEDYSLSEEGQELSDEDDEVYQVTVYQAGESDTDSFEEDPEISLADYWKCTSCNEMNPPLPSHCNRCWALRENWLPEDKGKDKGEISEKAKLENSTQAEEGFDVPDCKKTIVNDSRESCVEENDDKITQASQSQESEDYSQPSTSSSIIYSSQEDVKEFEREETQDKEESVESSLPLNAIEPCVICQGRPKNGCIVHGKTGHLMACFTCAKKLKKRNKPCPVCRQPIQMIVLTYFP
T1 sequence (Q00987 whole entry): as above

For Staplin (peptide), the ΔTm50 is 6.76 °C in experiment [1] and 5.48 °C in experiment [2].
For orientation: IC50 means the midpoint of a concentration-inhibition curve. For `CC(=O)N[C@H](C(=O)N[C@@H](CO)C(=O)N[C@@H](Cc1ccccc1)C(=O)N[C@]1(C)CCCCCCC=CCCC[C@@](C)(C(N)=O)NC(=O)[C@H](CC(C)C)NC(=O)[C@H](CC(C)C)NC(=O)[C@H](C)NC(=O)[C@H](Cc2c[nH]c3ccccc23)NC(=O)[C@H](Cc2ccc(O)cc2)NC(=O)[C@H](CCC(=O)O)NC1=O)[C@@H](C)O` [Staplin], the ΔTm at 10 µM came to 6.76 °C at Mdm2 [3] (human, 0.25 h, versus control, read-out: Mdm2: ΔTm50 (±95% CI)) and 5.48 °C on Mdm4 [4] (human, 0.25 h, Fig. 1b, 10 μM in 5 mg/ml AML2 cell lysates, versus control, three independent replicates, read-out: Mdm4: ΔTm50 (±95% CI)). Further, the IC50 on Mdm4 [5] is 660 ± 60 nM.
`CC(C)C[C@H](NC(=O)c1ccc2c(c1)C(=O)OC21c2ccc(O)cc2Oc2cc(O)ccc21)C(=O)N[C@H](C(=O)N[C@@H](Cc1ccccc1)C(=O)N[C@]1(C)CCCCCCC=CCCC[C@@](C)(C(=O)N[C@@H](CO)C(=O)N[C@@H](C)C(=O)N[C@@H](C)C(N)=O)NC(=O)[C@H](CC2CCC2)NC(=O)[C@H](CCC(N)=O)NC(=O)[C@H](C)NC(=O)[C@H](Cc2c[nH]c3ccccc23)NC(=O)[C@H](Cc2ccc(O)cc2)NC(=O)[C@H](CCC(=O)O)NC1=O)[C@@H](C)O` [ATSP-7041 ^FAM]: at Mdm4 [4] (Fig. 2c, labelled and unlabelled stapled peptides, AML2 cell extracts, 15 min), the “Mdm4 ΔTm50 (±95% CI)” value was 1.11 (1.65) °C.
With “Ac-^1LTFXrEYWAQ(Cba)XSSAA^14-NH2 (sidechain bridge or staple) [ATSP-7041, reference compound]”, the IC50 with Mdm4 [5] was 2310 nM. For the same compound, the “p53 activation measured by β-galactosidase activity with increasing concentrations” value in experiment [6] was “correspondingly increasing p53 activity and plateaued off at maxima”.
Regarding ATSP-7041 (peptide), in experiment [1], the thermal shift (ΔTm50) worked out at 1.52 °C.
Take `COc1ccc(C2=N[C@@H](c3ccc(Cl)cc3)[C@@H](c3ccc(Cl)cc3)N2C(=O)N2CCNC(=O)C2)c(OC(C)C)c1` [Nutlin-3, nutlin-3, reference compound]: on Mdm2 [3] (15 min room temperature, heated 2 min, Western blot), the “Mdm2: Tm50 (mean +95% CI −95% CI)” value stood at 55.9 °C. Further, the “Mdm2 ΔΔTm50 (±95% CI), lysate versus whole cell” value on Mdm2 [7] (Fig. 3a, 10 μM) was found to be 0.24 ± 1.42 °C.
Turning to FAM-labelled ATSP-7041 (peptide), the decrease in thermal shift against unlabelled ATSP-7041 in experiment [2] is 0.4 °C.
Take “Ac-^1TSFXrEYW(6Cl)WALLXs^11-NH2 (sidechain bridge or staple) [Staplin-2]”: the 50% inhibitory concentration (IC50) with Mdm2 [8] was 320 ± 20 nM; in the experiment with Mdm4 [5], 3490 ± 630 nM. For the same compound, the “Mdm2: ΔTm50 (±95% CI)” value at Mdm2 [3] (versus control) worked out at 6.58 °C. The “Mdm4: ΔTm50 (±95% CI)” value on Mdm4 [4] (Fig. 1b, 10 μM in 5 mg/ml AML2 cell lysates, versus control, three independent replicates) was 5.44 °C. The “ΔΔTm50 (±95% CI) Mdm2, lysate versus whole cell” value at Mdm2 [7] (Fig. 3b, whole cells 25 μM) is 4.01 °C. On Mdm2 [7] (whole cells 25 μM), the “mean thermal shift from the whole cell CETSA as % of the mean thermal shift for the cell lysate CETSA, Mdm2” value came out at 40%. The “ΔΔTm50 (±95% CI) Mdm4, lysate versus whole cell” value at Mdm4 [9] (Fig. 3b) was determined as 3.58 °C. In addition, the “mean thermal shift from the whole cell CETSA as % of the mean thermal shift for the cell lysate CETSA, Mdm4” value on Mdm4 [9] is 33%. For the same compound, in experiment [6], the “p53 activation measured by β-galactosidase activity with increasing concentrations” value was “correspondingly increasing p53 activity and plateaued off at maxima”.
Consider FAM-labelled Staplin-2 (peptide), for which the thermal shift less than that of unlabelled Staplin-2 in [1] is 2.71 °C; in [2], 2.99 °C.
As to Staplin-2 (peptide), the mean thermal shift in whole cell CETSA as percent of that in cell lysate CETSA was 40% in experiment [10] and 33% in experiment [11]. The ΔΔTm50 (whole cell CETSA against cell lysate CETSA) in experiment [10] was 4.01 °C; in experiment [11] it was 3.58 °C. The results for the ΔTm50 in experiment [1] and in [2] were 6.58 °C and 5.44 °C, respectively.
Consider `CC(=O)N[C@H](C(=O)N[C@@H](CO)C(=O)N[C@@H](C)C(=O)N[C@]1(C)CCCCCCC=CCCC[C@@](C)(C(N)=O)NC(=O)[C@H](C)NC(=O)[C@H](CC(C)C)NC(=O)[C@H](C)NC(=O)[C@H](C)NC(=O)[C@H](Cc2ccc(O)cc2)NC(=O)[C@H](CCC(=O)O)NC1=O)[C@@H](C)O` [Staplin-Control, reference compound] (Ac-TSA[R8]EYAALA[S5]-NH2; staple 4-11), for which the IC50 on Mdm2 [8] (setting [12]) and on Mdm4 [5] (setting [12]) was above 10000 nM throughout.

Values taken from article PMC4498326, “Assessing the Efficacy of Mdm2/Mdm4-Inhibiting Stapled Peptides Using Cellular Thermal Shift Assays” (Scientific Reports, 2015).
